Efflux ratio, IC50 and Papp data for 22 compounds are collected here from US11414404B2, “Compounds for the treatment of BRAF-associated diseases and disorders” (Array BioPharma Inc., priority 2019, dated 2022).

One series addresses BCRP (Homo sapiens (Human), UniProt Q9UNQ0). Kind of series: BCRP MDCKII permeability assay: efflux ratio. The settings on record: dog.
The target in a further series is P-gp (MDR1) (Homo sapiens (Human), UniProt P08183). Kind of series: MDR1 LLC-PK1 permeability assay: efflux ratio. The settings on record: pig, LLC-PK1.
For series [1], the target named is full-length FLAG-tagged B-Raf(V600E) (Homo sapiens (Human), UniProt P15056, V600E). Briefly: BRAF V600E enzyme assay (TR-FRET competitive displacement of fluorescent tracer). The class given is binding. As to conditions: averaged IC50; 60 min at ambient temperature; 11-point dosing, top dose 10 μM. An excerpt: A competitive displacement assay was configured for B-Raf that monitors the amount of a fluorescently-tagged “tracer” bound to B-Raf via TR-FRET from an anti-tag Eu-labeled antibody also bound to B-Raf.
[formula] • where: • Xmax Average Uninhibited Controls • Xmin Average Background
A 4-parameter logistic model was the fit to the POC data for each compound.
(In general: TR-FRET usually uses a lanthanide donor and a delayed reading to cut background.)

Series [2] is described as follows: MDR1 LLC-PK1 and BCRP MDCKII permeability assay: permeability coefficient (Papp).
Protocol: Both LLC-PK1 and MDR1 transfected LLC-PK1 cells were cultured and plated according to manufacturer's recommendations with the exception that the passage media contained only 2% fetal bovine serum to extend passage time out to seven days.
BCRP transfected MDCKII cells were cultured and plated according to manufacturer's recommendations. Assay conditions included with and without the BCRP-specific inhibitor, K0143, at a concentration of 0.3 μM to ascertain the contribution of BCRP to the efflux value of the test compound.
Both positive and negative controls were used to assess functionality of P-gp or BCRP efflux in the assays. […] Final organic concentration in the assay was 1%. All dosing solutions contained 10 μM lucifer yellow to monitor LLC-PK1 or MDCKII cell monolayer integrity.
For the apical to basolateral determination (A to B), 75 μL of the test article in transport buffer were added to the apical side of the individual transwells and 250 μL of basolateral media, without compound or lucifer yellow, were added to each well. For the basolateral to apical determination (B to A), 250 μL of test article in transport buffer were added to each well and 75 μL transport buffer, without compound or lucifer yellow, were added to each transwell. All tests were performed in triplicate, and each compound was tested for both apical to basolateral and basolateral to apical transport. The plates were incubated for 2 hours on a Lab-Line Instruments Titer Orbital Shaker (VWR, West Chester, Pa.) at 50 rpm and 37° C. with 5% CO2. All culture plates were removed from the incubator and 50 μL of media were removed from the apical and basolateral portion of each well and added to 150 μL of 1 μM labetalol in 2:1 acetonitrile (acetonitrile): H2O, v/v.
These values were accepted when found to be below 2% for apical to basolateral and 5% basolateral to apical flux across the MDR1-transfected LLC-PK1 or BCRP-transfected MDCKII cell monolayers. The plates were sealed and the contents of each well analyzed by LC-MS/MS. The compound concentrations were determined from the ratio of the peak areas of the compound to the internal standard (labetalol) in comparison to the dosing solution.
The LC-MS/MS system was comprised of an HTS-PAL autosampler (Leap Technologies, Carrboro, N.C.), an HP1200 HPLC (Agilent, Palo Alto, Calif.), and a MDS Sciex 4000 Q Trap system (Applied Biosystems, Foster City, Calif.). […] The total run time, including re-equilibration, for a single injection was 1.2 minutes. Mass spectrometric detection of the analytes was accomplished using the ion spray positive mode.
where Cd, V, t and C0 are the detected concentration (μM), the volume on the dosing side (mL); the incubation time (s) and the initial dosing concentration (μM), respectively. The calculations for Papp were made for each replicate and then averaged.

Counter-ions that a name gives are not always drawn.

Sequence of BCRP (Q9UNQ0 whole entry, species assumed): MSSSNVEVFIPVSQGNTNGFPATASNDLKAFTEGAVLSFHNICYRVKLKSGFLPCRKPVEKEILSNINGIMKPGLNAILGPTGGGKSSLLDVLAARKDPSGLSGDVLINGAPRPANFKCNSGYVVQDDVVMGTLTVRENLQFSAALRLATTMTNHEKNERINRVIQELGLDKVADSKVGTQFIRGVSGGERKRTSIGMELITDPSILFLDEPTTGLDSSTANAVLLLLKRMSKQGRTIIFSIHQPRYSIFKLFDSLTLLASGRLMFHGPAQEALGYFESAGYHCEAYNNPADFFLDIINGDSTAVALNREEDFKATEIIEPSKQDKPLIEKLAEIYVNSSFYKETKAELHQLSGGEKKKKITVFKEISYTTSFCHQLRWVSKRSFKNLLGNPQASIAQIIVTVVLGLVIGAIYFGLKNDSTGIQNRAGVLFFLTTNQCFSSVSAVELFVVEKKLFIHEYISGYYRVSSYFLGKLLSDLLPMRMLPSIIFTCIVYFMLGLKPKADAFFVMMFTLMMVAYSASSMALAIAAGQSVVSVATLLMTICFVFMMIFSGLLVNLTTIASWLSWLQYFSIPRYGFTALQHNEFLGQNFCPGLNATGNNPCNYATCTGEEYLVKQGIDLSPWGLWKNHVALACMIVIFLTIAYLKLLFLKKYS
Sequence of P-gp (MDR1) (P08183 whole entry, species assumed): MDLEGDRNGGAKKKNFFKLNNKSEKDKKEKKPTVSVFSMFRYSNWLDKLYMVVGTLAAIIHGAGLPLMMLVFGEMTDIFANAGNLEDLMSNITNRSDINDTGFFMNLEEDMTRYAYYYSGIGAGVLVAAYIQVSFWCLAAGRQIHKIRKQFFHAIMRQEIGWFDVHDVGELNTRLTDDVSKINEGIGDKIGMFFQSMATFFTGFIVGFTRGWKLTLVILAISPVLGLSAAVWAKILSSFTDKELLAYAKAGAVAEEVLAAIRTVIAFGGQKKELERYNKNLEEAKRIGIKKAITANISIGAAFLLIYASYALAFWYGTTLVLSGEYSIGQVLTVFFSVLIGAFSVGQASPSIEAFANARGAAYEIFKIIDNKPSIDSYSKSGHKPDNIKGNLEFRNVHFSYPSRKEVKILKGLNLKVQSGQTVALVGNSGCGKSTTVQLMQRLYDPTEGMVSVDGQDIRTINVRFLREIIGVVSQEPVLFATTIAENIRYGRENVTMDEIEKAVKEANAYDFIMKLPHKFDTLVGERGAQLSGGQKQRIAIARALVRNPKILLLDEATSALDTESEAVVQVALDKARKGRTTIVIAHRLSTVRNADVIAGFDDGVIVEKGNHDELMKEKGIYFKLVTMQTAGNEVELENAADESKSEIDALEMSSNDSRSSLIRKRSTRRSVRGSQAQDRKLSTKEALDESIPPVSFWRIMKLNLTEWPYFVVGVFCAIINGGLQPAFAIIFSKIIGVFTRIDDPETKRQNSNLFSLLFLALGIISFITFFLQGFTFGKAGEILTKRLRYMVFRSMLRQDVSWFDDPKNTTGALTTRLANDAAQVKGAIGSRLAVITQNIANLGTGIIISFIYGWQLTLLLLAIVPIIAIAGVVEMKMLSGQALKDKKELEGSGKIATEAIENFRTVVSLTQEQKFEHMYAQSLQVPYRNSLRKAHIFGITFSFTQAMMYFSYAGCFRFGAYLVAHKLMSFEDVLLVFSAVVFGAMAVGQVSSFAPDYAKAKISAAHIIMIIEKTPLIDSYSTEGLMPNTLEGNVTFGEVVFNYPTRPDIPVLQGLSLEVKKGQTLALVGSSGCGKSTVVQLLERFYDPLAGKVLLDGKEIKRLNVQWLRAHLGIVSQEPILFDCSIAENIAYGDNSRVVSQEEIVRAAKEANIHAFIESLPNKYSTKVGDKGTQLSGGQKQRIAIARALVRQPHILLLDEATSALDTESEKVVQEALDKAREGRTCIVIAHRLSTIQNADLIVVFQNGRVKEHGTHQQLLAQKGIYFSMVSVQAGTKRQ
Sequence of full-length FLAG-tagged B-Raf(V600E) (P15056 whole entry V600E): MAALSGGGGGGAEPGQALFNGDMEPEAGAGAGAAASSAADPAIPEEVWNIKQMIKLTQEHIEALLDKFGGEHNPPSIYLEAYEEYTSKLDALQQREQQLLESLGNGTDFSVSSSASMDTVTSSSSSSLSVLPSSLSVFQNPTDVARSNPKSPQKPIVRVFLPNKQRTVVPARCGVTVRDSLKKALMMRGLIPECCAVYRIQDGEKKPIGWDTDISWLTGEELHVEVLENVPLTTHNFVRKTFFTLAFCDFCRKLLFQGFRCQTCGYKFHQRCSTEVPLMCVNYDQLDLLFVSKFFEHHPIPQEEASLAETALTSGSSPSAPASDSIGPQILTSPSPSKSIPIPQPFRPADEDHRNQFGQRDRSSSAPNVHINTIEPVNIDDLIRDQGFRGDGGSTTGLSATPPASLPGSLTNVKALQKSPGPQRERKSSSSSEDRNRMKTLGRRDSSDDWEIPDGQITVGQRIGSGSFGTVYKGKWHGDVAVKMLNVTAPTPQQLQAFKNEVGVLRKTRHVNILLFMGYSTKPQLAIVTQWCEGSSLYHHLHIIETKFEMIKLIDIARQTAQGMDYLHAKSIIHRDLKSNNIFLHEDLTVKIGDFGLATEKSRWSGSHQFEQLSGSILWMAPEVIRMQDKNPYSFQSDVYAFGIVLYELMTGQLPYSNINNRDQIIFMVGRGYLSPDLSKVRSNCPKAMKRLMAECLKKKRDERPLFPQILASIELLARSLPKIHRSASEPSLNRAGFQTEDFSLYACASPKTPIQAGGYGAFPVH

What is called efflux ratio is the permeability from basolateral to apical divided by that in the opposite direction, in the common usage. Broadly, the IC50 is the concentration needed to halve the response being measured. Low readings indicate inhibition by little substance, high ones a need for much substance. By Papp is commonly meant the rate of passage across a membrane or cell layer, normalised by area and donor concentration. Read a low Papp as poor permeation. As for `Cc1c(Nc2c(F)ccc(NS(=O)(=O)CCCF)c2F)ccc2ncn(C)c(=O)c12` [Example 2, N-(3-((3,5-dimethyl-4-oxo-3,4-dihydroquinazolin-6-yl)amino)-2,4-difluorophenyl)-3-fluoropropane-1-sulfonamide], the efflux ratio at 2 h, 1 µM was found to be 18.6 on BCRP and 3.92 on P-gp (MDR1). This compound also registered a half-maximal inhibitory concentration (IC50) in series [1] of 14.2 nM. The compound also yielded a Papp at 2 h, 1 µM in series [2] of 30.1 ×10⁻⁶ cm/s.

Consider `CCCS(=O)(=O)Nc1cccc(Nc2ccc3ncn(C)c(=O)c3c2C)c1Cl` [Example 3, N-(2-chloro-3-((3,5-dimethyl-4-oxo-3,4-dihydroquinazolin-6-yl)amino)phenyl)propane-1-sulfonamide], for which the results for the efflux ratio at 2 h, 1 µM on BCRP and on P-gp (MDR1) were 0.87 and 1.37, respectively. The same compound registered an IC50 in series [1] of 70.5 nM. Moreover, in series [2], the apparent permeability (Papp) at 2 h, 1 µM amounted to 25.8 ×10⁻⁶ cm/s.

For `CCCS(=O)(=O)Nc1cc(F)c(F)c(Nc2ccc3ncn(C)c(=O)c3c2C)c1F` [Example 5, N-(3-((3,5-dimethyl-4-oxo-3,4-dihydroquinazolin-6-yl)amino)-2,4,5-trifluorophenyl)propane-1-sulfonamide], the figures for the efflux ratio at 2 h, 1 µM on BCRP and at P-gp (MDR1) were 8.33 and 2.24, respectively. This compound also showed an IC50 in series [1] of 6.25 nM. This compound also yielded a Papp at 2 h, 1 µM in series [2] of 26.7 ×10⁻⁶ cm/s.

For the compound `Cc1c(Nc2c(F)c(F)cc(NS(=O)(=O)CCCF)c2F)ccc2ncn(C)c(=O)c12` [Example 6, N-(3-((3,5-dimethyl-4-oxo-3,4-dihydroquinazolin-6-yl)amino)-2,4,5-trifluorophenyl)-3-fluoropropane-1-sulfonamide], the efflux ratio at 2 h, 1 µM at BCRP was determined as 25.2; at P-gp (MDR1), 4.68. In addition, in series [1], the half-inhibitory concentration (IC50) turned out to be 1.75 nM. Further, in series [2], the Papp at 2 h, 1 µM turned out to be 22.2 ×10⁻⁶ cm/s.

Take `Cc1c(Nc2c(F)c(F)cc(NS(=O)(=O)CCCF)c2Cl)ccc2ncn(C)c(=O)c12` [Example 8, N-(2-chloro-3-((3,5-dimethyl-4-oxo-3,4-dihydroquinazolin-6-yl)amino)-4,5-difluorophenyl)-3-fluoropropane-1-sulfonamide]: the efflux ratio at 2 h, 1 µM on BCRP was found to be 11.2; on P-gp (MDR1) it was 1.61. In series [1], this compound had an IC50 of 1.45 nM. The Papp at 2 h, 1 µM in series [2] was 27.5 ×10⁻⁶ cm/s.

For the compound `Cc1c(Nc2c(F)ccc(NS(=O)(=O)CCCF)c2Cl)ccc2ncn(C)c(=O)c12` [Example 10, N-(2-chloro-3-((3,5-dimethyl-4-oxo-3,4-dihydroquinazolin-6-yl)amino)-4-fluorophenyl)-3-fluoropropane-1-sulfonamide], the Papp at 2 h, 1 µM in series [2] is 41 ×10⁻⁶ cm/s.

`CCCS(=O)(=O)Nc1cc(F)cc(Nc2ccc3ncn(C)c(=O)c3c2C)c1F` [Example 11, N-(3-((3,5-dimethyl-4-oxo-3,4-dihydroquinazolin-6-yl)amino)-2,5-difluorophenyl)propane-1-sulfonamide]: the efflux ratio at 2 h, 1 µM at BCRP amounted to 2.35; at P-gp (MDR1) it was 1.65. In series [1], this compound registered an IC50 of 16.1 nM. Also, the Papp at 2 h, 1 µM in series [2] was found to be 28.6 ×10⁻⁶ cm/s.

For `CCCS(=O)(=O)Nc1cc(F)cc(Nc2ccc3ncn(C)c(=O)c3c2C)c1Cl` [Example 12, N-(2-chloro-3-((3,5-dimethyl-4-oxo-3,4-dihydroquinazolin-6-yl)amino)-5-fluorophenyl)propane-1-sulfonamide], the efflux ratio at 2 h, 1 µM on BCRP is 1.13; on P-gp (MDR1), 0.93. This compound also displayed an IC50 in series [1] of 9.75 nM. In series [2], this compound came in with a Papp at 2 h, 1 µM of 27 ×10⁻⁶ cm/s.

As to `CCCS(=O)(=O)Nc1cc(Cl)cc(Nc2ccc3ncn(C)c(=O)c3c2C)c1F` [Example 13, N-(5-chloro-3-((3,5-dimethyl-4-oxo-3,4-dihydroquinazolin-6-yl)amino)-2-fluorophenyl)propane-1-sulfonamide], the efflux ratio at 2 h, 1 µM is 1.51 at BCRP and 1.35 at P-gp (MDR1). Besides, the IC50 in series [1] stood at 4.6 nM. The Papp at 2 h, 1 µM in series [2] amounted to 24.3 ×10⁻⁶ cm/s.

`CCCS(=O)(=O)Nc1ccc(Cl)c(Nc2ccc3ncn(C)c(=O)c3c2C)c1Cl` [Example 14, N-(2,4-dichloro-3-((3,5-dimethyl-4-oxo-3,4-dihydroquinazolin-6-yl)amino)phenyl)propane-1-sulfonamide]: the efflux ratio at 2 h, 1 µM on BCRP was determined as 1.08; on P-gp (MDR1), 1.38. In addition, the IC50 in series [1] was found to be 13.9 nM. The Papp at 2 h, 1 µM in series [2] turned out to be 26.5 ×10⁻⁶ cm/s.

For the compound `CCCS(=O)(=O)Nc1ncc(Cl)c(Nc2ccc3ncn(C)c(=O)c3c2C)c1Cl` [Example 15, N-(3,5-dichloro-4-((3,5-dimethyl-4-oxo-3,4-dihydroquinazolin-6-yl)amino)pyridin-2-yl)propane-1-sulfonamide], the values for the efflux ratio at 2 h, 1 µM at BCRP and at P-gp (MDR1) were 4.5 and 1.87, respectively. Moreover, the IC50 in series [1] came to 4.55 nM. The compound also showed a Papp at 2 h, 1 µM in series [2] of 24.1 ×10⁻⁶ cm/s.

`CCCS(=O)(=O)Nc1ncc(F)c(Nc2ccc3ncn(C)c(=O)c3c2C)c1F` [Example 16, N-(4-((3,5-dimethyl-4-oxo-3,4-dihydroquinazolin-6-yl)amino)-3,5-difluoropyridin-2-yl)propane-1-sulfonamide]: the efflux ratio at 2 h, 1 µM was determined as 20.3 on BCRP and 4.76 at P-gp (MDR1). Besides, the IC50 in series [1] turned out to be 17 nM. In series [2], the Papp at 2 h, 1 µM was found to be 21.3 ×10⁻⁶ cm/s.

For the compound `Cc1c(Nc2c(F)cnc(NS(=O)(=O)CCCF)c2F)ccc2ncn(C)c(=O)c12` [Example 17, N-(4-((3,5-dimethyl-4-oxo-3,4-dihydroquinazolin-6-yl)amino)-3,5-difluoropyridin-2-yl)-3-fluoropropane-1-sulfonamide], the results for the efflux ratio at 2 h, 1 µM at BCRP and on P-gp (MDR1) were 25.3 and 5.07, respectively. Also, the IC50 in series [1] came to 9.7 nM. In addition, the Papp at 2 h, 1 µM in series [2] turned out to be 6.65 ×10⁻⁶ cm/s.

Consider `CCCS(=O)(=O)Nc1ncc(F)c(Nc2ccc3ncn(C)c(=O)c3c2C)c1Cl` [Example 18, N-(3-chloro-4-((3,5-dimethyl-4-oxo-3,4-dihydroquinazolin-6-yl)amino)-5-fluoropyridin-2-yl)propane-1-sulfonamide], for which the results for the efflux ratio at 2 h, 1 µM at BCRP and at P-gp (MDR1) were 10.4 and 1.52, respectively. The compound further registered a concentration for half-maximal inhibition (IC50) in series [1] of 7.85 nM. Further, the Papp at 2 h, 1 µM in series [2] worked out at 27.9 ×10⁻⁶ cm/s.

As to `Cc1c(Nc2c(F)cnc(NS(=O)(=O)CCCF)c2Cl)ccc2ncn(C)c(=O)c12` [Example 19, N-(3-chloro-4-((3,5-dimethyl-4-oxo-3,4-dihydroquinazolin-6-yl)amino)-5-fluoropyridin-2-yl)-3-fluoropropane-1-sulfonamide], the efflux ratio at 2 h, 1 µM at BCRP is 21.1; on P-gp (MDR1), 3.24. The same compound showed an IC50 in series [1] of 6.2 nM. In addition, the Papp at 2 h, 1 µM in series [2] came out at 15.9 ×10⁻⁶ cm/s.

`Cc1c(Nc2c(F)ccc(NS(=O)(=O)c3ccco3)c2Cl)ccc2ncn(C)c(=O)c12` [Example 20, N-(2-chloro-3-((3,5-dimethyl-4-oxo-3,4-dihydroquinazolin-6-yl)amino)-4-fluorophenyl)furan-2-sulfonamide]: the efflux ratio at 2 h, 1 µM was found to be 7.43 at BCRP and 1.86 on P-gp (MDR1). In addition, the IC50 in series [1] stood at 0.7 nM. The same compound registered an apparent permeability (Papp) at 2 h, 1 µM in series [2] of 32.9 ×10⁻⁶ cm/s.

Consider `Cc1c(Nc2c(F)ccc(NS(=O)(=O)N3CCCC3)c2Cl)ccc2ncn(C)c(=O)c12` [Example 21, N-(2-chloro-3-((3,5-dimethyl-4-oxo-3,4-dihydroquinazolin-6-yl)amino)-4-fluorophenyl)pyrrolidine-1-sulfonamide], for which the efflux ratio at 2 h, 1 µM at BCRP was determined as 0.77; on P-gp (MDR1) it was 1.22. The compound also came in with an IC50 in series [1] of 34.7 nM. This compound also gave a Papp at 2 h, 1 µM in series [2] of 19.2 ×10⁻⁶ cm/s.

On to `Cc1c(Nc2c(F)ccc(NS(=O)(=O)N3CC[C@@H](F)C3)c2Cl)ccc2ncn(C)c(=O)c12` [Example 22, (R)—N-(2-chloro-3-((3,5-dimethyl-4-oxo-3,4-dihydroquinazolin-6-yl)amino)-4-fluorophenyl)-3-fluoropyrrolidine-1-sulfonamide], for which the efflux ratio at 2 h, 1 µM on BCRP worked out at 1.49; on P-gp (MDR1) it was 1.63. Further, the IC50 in series [1] is 13.7 nM. The same compound gave an apparent permeability (Papp) at 2 h, 1 µM in series [2] of 34.3 ×10⁻⁶ cm/s.

Consider `[2H]C([2H])([2H])n1cnc2ccc(Nc3c(F)ccc(NS(=O)(=O)CCCF)c3Cl)c(C)c2c1=O` [Example 23, N-(2-chloro-4-fluoro-3-((5-methyl-3-(methyl-d3)-4-oxo-3,4-dihydroquinazolin-6-yl)amino)-phenyl)-3-fluoropropane-1-sulfonamide], for which the Papp at 2 h, 1 µM in series [2] amounted to 39.5 ×10⁻⁶ cm/s.

With `CCCS(=O)(=O)Nc1ccc(F)c(Nc2ccc3ncn(C(C)C)c(=O)c3c2C)c1Cl` [Example 36, N-(2-chloro-4-fluoro-3-((3-isopropyl-5-methyl-4-oxo-3,4-dihydroquinazolin-6-yl)amino)phenyl)propane-1-sulfonamide trifluoroacetate], the efflux ratio at 2 h, 1 µM at BCRP came to 1.22; at P-gp (MDR1), 1.17. Also, the half-maximal inhibitory concentration (IC50) in series [1] was 26.4 nM.

Regarding `Cc1c(Oc2c(F)ccc(NS(=O)(=O)CCCF)c2F)ccc2ncn(C)c(=O)c12` [Example 56, N-(3-((3,5-dimethyl-4-oxo-3,4-dihydroquinazolin-6-yl)oxy)-2,4-difluorophenyl)-3-fluoropropane-1-sulfonamide], the efflux ratio at 2 h, 1 µM on BCRP amounted to 3.14; on P-gp (MDR1), 2.81. Further, the IC50 in series [1] turned out to be 12.9 nM.

Regarding `CCCS(=O)(=O)Nc1nccc(Oc2ccc3ncn(C)c(=O)c3c2C)c1Cl` [Example 57, N-(3-chloro-4-((3,5-dimethyl-4-oxo-3,4-dihydroquinazolin-6-yl)oxy)pyridin-2-yl)propane-1-sulfonamide], the efflux ratio at 2 h, 1 µM turned out to be 2.08 on BCRP and 0.91 on P-gp (MDR1). This compound came in with an IC50 in series [1] of 96 nM.
